The structures appear in SMILES notation. A value given as a limit tells only on which side of the number the result lay.

Take `CCOC(=O)c1cn(C2COC2)c2c(F)c(F)cc(F)c2c1=O`: the melting point (usually the temperature of the solid-liquid transition) lay within 169 to 171 °C.
The value for `COc1ccc(N2CCN(c3ccc([N+](=O)[O-])cn3)CC2)cc1` was 165 to 166 °C; that for `COc1cccc(Oc2c(NS(=O)(=O)c3ccc(C(C)(C)C)cc3)ncnc2OCCCO)c1` was 113 to 114 °C.
The value for `CCSc1ccc(-c2c(Cl)ncn2-c2ccc(S(C)(=O)=O)cc2)cc1` was 181 to 185 °C; that for `CCOC(=O)c1ncn(-c2nccs2)c1S` was 155 to 158 °C.
The value for `N#CCCSCc1nccc(NC(=S)NCC(F)(F)F)n1` was 108 to 110 °C.
Take `CNC(=O)C(C)(C)OCc1cc(-c2ccc(Cl)cc2)no1`: the melting point is 93 to 94 °C.
As to `CS(=O)(=O)Nc1ccccc1Sc1c(C(=O)O)sc2cc(OCc3cccnc3)ccc12`, the melting point fell in the range of 258 to 260 °C.
`O=C(O)Cc1ccc(CNC(=O)C2Cc3ccccc3N2S(=O)(=O)c2ccc(-c3cccc(C(F)(F)F)c3)cc2)c(F)c1` (configuration not stated) returned a melting point of 99 to 105 °C.
The value for `COc1ccc(C(=O)OC2C(OC(C)=O)C=C(C)C(=O)CC2(C)C)cc1` (configuration not stated) was 78 to 80 °C; that for `O=C(c1ccc(-c2ccc3nnn(Cc4ccc5ncccc5c4)c3n2)cc1)N1CCC(N2CCCC2)CC1` was 125 to 127 °C.
Under `CC(C)(C)OC(=O)N1C[C@@H]2OCc3c(-c4ccccc4)nnn3[C@H]2C1` stands 236 to 237 °C; under `CNC(=S)N1CCc2[nH]cnc2C1`, 228 °C; under `CCCCNC(=O)N1Cc2ccccc2CCC1=O`, 84.5 to 85 °C.
Under `CC(C)(CN(Cc1ccccc1)C(=O)CCC(=O)O)SN=O` stands 95 to 98 °C; under `Cc1cc(F)ccc1-c1ccc(S(=O)(=O)N2c3ccccc3CC2C(=O)NCCOc2cc(F)c(C(=O)O)c(F)c2)cc1` (configuration not stated), 97 to 111 °C; under `O=c1c(/C=C/c2nnn[nH]2)coc2ccccc12`, 254 to 255 °C.
`O=C(Nc1ccc2ccc(Cl)nc2n1)c1ccncc1`: the melting point was determined as 220 °C.
`Nc1ccc(S(=O)(=O)Nc2ccc(C(O)(C(F)(F)F)C(F)(F)F)cc2)cc1` displayed a melting point of 160 to 161 °C.
Under `Oc1nc(-c2ccccc2)sc1CCc1ccccc1` stands 127 to 128 °C; under `COc1cccc(C(O)c2cccnc2Cl)c1` (configuration not stated), 114 to 115 °C; under `C#CC12CC3CC(C#C)(C1)CC(C#C)(C3)C2`, 84 to 86 °C.
In turn, `COc1cc(Nc2c(C#N)cnc3cc(/C=C/CCN4CCN(C)CC4)c(OC)cc23)c(Cl)cc1Cl` showed a melting point of 142 to 143 °C.
Under `CCc1cccc(CC(=O)O)c1OCCCc1cn(-c2ccc(C(F)(F)F)nn2)nc1C(C)C` stands 126 to 127 °C; under `NC(=O)C1=CCCc2cc(Sc3cccc(F)c3)ccc21`, 168 to 170 °C.
Under `CS(=O)(=O)c1ccc(-n2nc(C(F)(F)F)cc2-c2ccc(-c3ccco3)cc2)cc1F` stands 129 to 130 °C; under `N#Cc1ccc2[nH]cc(CCNC(=O)OCc3ccccc3)c2c1`, 128 to 129 °C.
Under `CC(C)(C)OC(=O)C=Cc1ccc2c(c1)OCO2` stands 82 to 83 °C; under `COC(=O)Cc1ccccc1[C@@H]1O[C@H]1c1ccccc1` (relative stereo), 118 to 119 °C; under `Cc1cccc2cc3c(=O)[nH]cc(C(=O)O)c3nc12`, over 300 °C.
`CCOC(=O)c1cc(NCc2ccccc2)c(Nc2ccc3ccccc3c2)c(S(N)(=O)=O)c1`: the melting point fell in the range of 199 to 201 °C.
In turn, `CC(C)n1cnc(N2CCc3ccccc3CC2)c(C#N)c1=O` had a melting point of 152 to 154 °C.
Under `CCCCNC(=O)C(C)n1cc(C)c(-c2ccccc2)n1` (configuration not stated) stands 82 to 84 °C; under `CCCCCCCCCCCCCCCCCCOCC(CO)NC(C)=O` (configuration not stated), 82 to 85 °C.
Under `Oc1cccc2c(Cl)ncnc12` stands over 252 °C.
The value for `O=c1c2cccnc2c(-c2cccc(Cl)c2)cn1Cc1ccncc1` was 170 to 172 °C; that for `O=C(CC1CCCCCC1=O)c1ccccc1` (configuration not stated) was 42 to 44 °C.
`COc1ccc(-c2cn[nH]c2N)cc1` had a melting point of 198 to 201 °C.
Under `NC(=C[N+](=O)[O-])NC1=CC2CCC1C2` (configuration not stated) stands 128 to 132 °C.
The value for `Cc1cc(SCc2ccc(OCc3ccc(OC(F)(F)F)cc3)cc2)ccc1OCC(=O)O` was 141 to 142 °C; that for `CN1Cc2cncn2-c2ccc(F)cc2C1=O` was 236 °C; that for `Nc1nc(F)nc(OC(F)(F)F)n1` was 138 to 139 °C.
In the case of `CSC(=NC#N)NCCCOc1cccc(CN2CCCC2)c1`, the melting point lay in the range of 107 to 108 °C.
For `CC1(C)CC(=NO)c2cc(-c3ccccc3)ccc2O1`, the melting point fell in the range of 130 to 134 °C.
Under `O=C(O)c1nc(CCCc2ccccc2)c[nH]1` stands 148 to 150 °C.
`Nc1ccc(-c2nccc3[nH]c(=O)ccc23)cc1` displayed a melting point of 309 to 312 °C.
Under `CCn1c2ccc3ccccc3c2c2cccc(C)c21` stands 79 to 83 °C; under `CN(C)CCCC1(C#N)c2ccccc2COc2ccccc21` (configuration not stated), 112 to 114 °C.
The value for `COc1cccc(-c2n[nH]c3c2Cc2ccccc2-3)c1` was 172 to 174 °C; that for `Fc1ccc(N2CCN(Cc3cn4cc(Cl)cc(Cl)c4n3)CC2)cc1` was 126 to 128 °C; that for `Cc1ccc(S(=O)(=O)NN=C2C(=O)Nc3cccc(Cl)c32)cc1` was 195 to 196 °C.
The value for `CCOC(=O)c1cnn2c1nc(OCCC(C)C)c1cnc3c(cnn3CC)c12` was 117 to 118 °C; that for `N#CC1Cc2ccc([N+](=O)[O-])cc2C1` (configuration not stated) was 80 to 82 °C; that for `CS(=O)(=O)c1ccc(-c2cnn(CC(F)(F)F)c(=O)c2Oc2ccc(C#N)cc2)cc1` was 179 to 181 °C.
`CS(=O)(=O)c1ccc(-n2nc(C(F)(F)F)cc2-c2ccc(-c3ccoc3)cc2)cc1` returned a melting point of 165 to 166 °C.
The compound `CCCc1c(OCc2cccn3c(=O)c(CCC(=O)O)cnc23)ccc(C(C)=O)c1O` showed a melting point of 210 to 214 °C.
The value for `CC(C)Cc1ccc2scc(C(C)N(O)C(N)=O)c2c1` (configuration not stated) was 151 to 153 °C; that for `COc1ccc2[nH]c(C)c(/C=C/C(=O)c3ccncc3)c2c1` was 256 to 259 °C.
In the case of `C[C@@H](NC(=O)c1cnn(-c2ccc(Cl)cc2)c1N)[C@](O)(Cn1cncn1)c1ccc(F)cc1F`, the melting point lay within 181 to 182 °C.
Under `CCCCc1nc2cccc(O)c2n1Cc1ccc(-c2ccccc2-c2nnn[nH]2)cc1` stands 186 to 188 °C.
On to `CNC(=O)C(=O)CCCCCCSc1nc(-c2ccccc2)cs1`, for which the melting point fell in the range of 107 to 108 °C.
As to `CSC(=C[N+](=O)[O-])NCCCCc1nccs1`, the melting point is 75.5 to 76 °C.
Under `CC(c1cc(F)ccc1O)c1cc(Cl)cc(C(C)c2cc(F)ccc2O)c1O` (configuration not stated) stands 224 °C; under `CCOC(=O)C(=O)c1cn(Cc2ccc(C(C)(C)C)cc2)c2cc(-c3ccc(C(F)(F)F)cc3)ccc12`, 164 to 165 °C.
Under `COCC(=O)Nc1c(Cl)c(Cl)cc2nc(OC)c(OC)nc12` stands 171 to 173 °C; under `CCOc1cc(-c2nc3ccccc3[nH]2)n[nH]1`, 217 to 220 °C; under `Oc1noc2ccc(Cl)cc12`, 219 to 222 °C.
Under `Nc1c(CCO)cccc1C(O)c1ccc(Cl)cc1` (configuration not stated) stands 132 to 134 °C; under `COc1cc2c(cc1OC)CC(=O)N(CCCCl)C=C2`, 84 to 85 °C; under `O=C1Cc2ccnc(N3CCNCC3)c2N1`, 200 to 204 °C.
With `CC#CC(Cc1cccnc1)(C(=O)O)S(=O)(=O)c1ccc(OC)cc1` (configuration not stated), the melting point was 119 to 121 °C.
`COC(=O)c1ccc(OC2=C3N=C4CCCCC4=C3C(Cc3ccccc3F)C=C2)o1` (configuration not stated): the melting point is 121 to 122 °C.
Under `COC(=O)CN1CSC=C(N2C(=O)c3ccccc3C2=O)C1=O` stands 181 to 183 °C.
Under `O=C(Nc1cccc(Cl)c1)c1c(C(F)(F)F)nc2c(C(F)(F)F)cccc2c1O` stands 152 °C; under `CCCN1C(=O)N2CCN=C2c2c1ncn2C`, 110 to 112 °C; under `C=CC(=O)Nc1ccc2c(Nc3cccc(Br)c3)ncnc2c1`, over 265 °C.
`CC(C)c1n[nH]c2c(Nc3cccc(Cl)c3)nc(Cl)nc12` gave a melting point of 257 to 259 °C.
Regarding `CCCc1ccc2nc(COc3ccc(F)c(C(N)=O)c3F)sc2c1`, the melting point is 173 to 175 °C.
Under `COc1ccc(CSc2nnc(-c3ccc4occc4c3)o2)cc1F` stands 134 to 136 °C; under `Cc1oncc1C(=O)N1CCCC1`, 51 to 53 °C; under `N#Cc1ccc([C@@H]2CN(Cc3ccccc3)C[C@@]23NC(=O)N(c2cc(Cl)cc(Cl)c2)C3=O)cc1` (relative stereo), 200 °C.
Under `COc1cc(OC)c(C2CCN(C)C2CO)c(OC)c1` (configuration not stated) stands 82 to 85 °C.
Under `ClC1(CN2c3ccccc3Sc3ccccc32)CN2CCC1CC2` (configuration not stated) stands 156 to 160 °C; under `COc1ccc(-c2nnc(S)nc2-c2ccc(OC)cc2)cc1`, 228 to 232 °C; under `C#CCN1C(=O)COc2cc(F)c(-c3ccc(C(F)(F)F)n(C)c3=O)cc21`, 166 to 168 °C.
`CC(CC(O)(CNc1ccc2c(c1)COC2=O)C(F)(F)F)c1ccccc1` (configuration not stated) displayed a melting point of 110 °C.
Under `Cc1ncc(Cn2c(S)nc3ccccc32)o1` stands 153 °C.
The value for `CC(C)n1c(-c2ccccc2)cc(-c2ccc(F)cc2)c1C=O` was 118 to 122 °C; that for `O=[N+]([O-])c1ccc(CO)c([N+](=O)[O-])c1` was 105 to 110 °C.
Under `COc1cc(CNC(=O)c2ccccc2)cc(OC)c1OC` stands 113 to 115 °C; under `Cc1nc(Cc2ccc(N)cc2)sc1C`, 91 to 92 °C.
The compound `OC(CSc1nccs1)(Cn1cncn1)c1ccc(Cl)cc1Cl` (configuration not stated) had a melting point of 110 to 111 °C.

These data come from a melting point compilation (Tetko et al.; mined from patent text by program, amines drawn as free bases though some values may be those of a salt).
